Data as given in patent US20130109682A1, “CYCLIC ETHER COMPOUNDS USEFUL AS KINASE INHIBITORS” (NOVARTIS AG, priority 2010, published 2013).
Where two headings read alike, the source gives them in different places.

Legend:
cABLT315 kinase = cABLT315 kinase (Homo sapiens, UniProt P00519); test: cABLT315 kinase Caliper assay; type: biochemical
Description: PKCα and cABLT315 Kinase Caliper Assays
Assays were performed in 384 well microtiter plates. Each assay plate contained 8-point serial dilutions for test compounds, as well as two 16-point serial dilutions of staurosporine as reference compound, plus 16 high- and 16 low controls. Liquid handling and incubation steps were done on a Thermo CatX workstation equipped with a Innovadyne Nanodrop Express. Between pipetting steps, tips were cleaned in wash cycles using wash buffer. Plates with terminated kinase reactions were transferred to the Caliper LC3000 workstations for reading. Phosphorylated and unphosphorylated peptides were separated using the Caliper microfluidic mobilitishift technology and Kinase activities were calculated from the amounts of formed phospho-peptide.
Kinase reactions were prepared in 384 low volume plates by the following sequence:
1. 0.05 μA Compound (start with 1.8 mM in 90% DMSO/10% H2O)
2. +4.5 μl 2× peptide/ATP solution
3. +4.5 μl 2× enzyme solution
4. Incubate for 60 min at 30° C.
4. +16 μl stop/run buffer
Independent of the kinase, all reactions were done performed in 50 mM HEPES, pH 7.5, 1 mM DTT, 0.02% Tween20, 0.02% BSA, and 0.6% DMSO. For cABLT315 assay specific details were as follows: [cABLT315 kinase]=2.4 nM, [ATP]=10 uM, [peptide]=2 uM, [Mg]=10 mM. For PKCα, assay specific details were as follows: [kinase]=0.012 nM, [ATP]=17 uM, [peptide]=1 uM, [Mg]=7 mM, [Ca]=0.2 mM.

hERG = biological target: T1, hERG (Homo sapiens, UniProt Q12809); test: hERG binding assay ([3H] dofetilide displacement); details: read-out: HERGdof IC50
T1 construct: host or cells: crude membrane suspension
T1 sequence (Q12809 whole entry): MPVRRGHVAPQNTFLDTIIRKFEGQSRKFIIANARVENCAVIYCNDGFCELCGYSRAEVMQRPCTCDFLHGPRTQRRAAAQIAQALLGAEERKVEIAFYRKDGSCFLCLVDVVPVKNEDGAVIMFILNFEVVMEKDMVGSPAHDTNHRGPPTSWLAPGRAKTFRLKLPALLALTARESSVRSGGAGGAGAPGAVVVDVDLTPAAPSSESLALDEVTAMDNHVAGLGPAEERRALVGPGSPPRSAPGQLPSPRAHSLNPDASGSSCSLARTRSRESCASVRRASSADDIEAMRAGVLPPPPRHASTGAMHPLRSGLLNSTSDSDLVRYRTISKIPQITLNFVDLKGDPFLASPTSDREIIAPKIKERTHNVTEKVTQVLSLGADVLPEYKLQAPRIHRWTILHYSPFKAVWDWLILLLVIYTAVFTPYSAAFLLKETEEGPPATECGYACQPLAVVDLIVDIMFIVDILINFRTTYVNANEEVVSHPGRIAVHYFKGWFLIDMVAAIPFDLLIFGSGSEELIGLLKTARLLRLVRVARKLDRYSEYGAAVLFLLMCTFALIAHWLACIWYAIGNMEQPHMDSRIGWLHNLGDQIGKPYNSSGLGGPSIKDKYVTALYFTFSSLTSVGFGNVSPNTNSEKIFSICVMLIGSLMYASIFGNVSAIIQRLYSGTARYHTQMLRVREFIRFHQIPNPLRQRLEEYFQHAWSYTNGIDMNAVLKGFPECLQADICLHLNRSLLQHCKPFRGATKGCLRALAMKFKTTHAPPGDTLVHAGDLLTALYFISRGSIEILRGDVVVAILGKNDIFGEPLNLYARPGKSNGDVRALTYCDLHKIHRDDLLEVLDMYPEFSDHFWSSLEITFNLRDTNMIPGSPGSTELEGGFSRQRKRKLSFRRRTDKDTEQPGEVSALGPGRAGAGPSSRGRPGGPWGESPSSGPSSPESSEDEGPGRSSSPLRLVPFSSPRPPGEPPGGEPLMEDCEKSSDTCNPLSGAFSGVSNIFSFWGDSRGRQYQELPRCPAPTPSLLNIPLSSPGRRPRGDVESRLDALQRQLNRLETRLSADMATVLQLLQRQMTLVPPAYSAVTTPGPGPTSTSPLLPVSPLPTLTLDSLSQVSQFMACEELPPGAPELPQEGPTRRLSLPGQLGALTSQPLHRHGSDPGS
How it was run: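 Displacement of 2.5 nM [3H]dofetilide from crude hERG membranes (ca. 15 μg protein) by filtration binding, 90 min at room temperature, 0.5% DMSO final. Non-specific binding defined with 25 μM terfenadine; compounds run as 9-point duplicate curves from 30 μM to 3 nM.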

FGFR3 kinase = FGFR3 kinase (Homo sapiens, UniProt P22607); test: FGFR3 kinase inhibition assay (LanthaScreen TR-FRET); type: biochemical
FGFR3 kinase, sequence (P22607 23-806): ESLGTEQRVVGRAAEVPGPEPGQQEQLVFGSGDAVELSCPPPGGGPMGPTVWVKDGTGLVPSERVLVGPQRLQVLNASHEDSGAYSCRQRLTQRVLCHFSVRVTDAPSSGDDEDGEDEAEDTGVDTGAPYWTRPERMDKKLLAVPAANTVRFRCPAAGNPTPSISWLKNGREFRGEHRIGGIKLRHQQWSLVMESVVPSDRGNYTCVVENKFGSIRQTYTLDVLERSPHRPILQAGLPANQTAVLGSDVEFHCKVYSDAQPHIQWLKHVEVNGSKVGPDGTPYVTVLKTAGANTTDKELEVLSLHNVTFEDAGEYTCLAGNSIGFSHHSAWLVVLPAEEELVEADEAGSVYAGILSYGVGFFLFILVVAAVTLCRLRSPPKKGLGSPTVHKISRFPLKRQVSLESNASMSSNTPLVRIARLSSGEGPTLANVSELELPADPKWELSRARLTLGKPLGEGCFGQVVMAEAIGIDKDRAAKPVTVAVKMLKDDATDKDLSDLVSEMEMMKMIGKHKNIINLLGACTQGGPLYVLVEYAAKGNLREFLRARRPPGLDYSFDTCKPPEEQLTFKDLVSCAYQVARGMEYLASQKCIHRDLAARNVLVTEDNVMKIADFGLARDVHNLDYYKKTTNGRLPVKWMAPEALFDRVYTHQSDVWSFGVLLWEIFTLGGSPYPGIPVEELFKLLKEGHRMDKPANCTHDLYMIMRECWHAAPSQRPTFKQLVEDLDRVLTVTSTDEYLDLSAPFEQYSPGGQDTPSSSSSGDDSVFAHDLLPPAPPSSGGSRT
Description: FGFR3 Kinase Inhibition Assay
LanthaScreen™ is the detection of Time-Resolved Fluorescence Resonance Energy Transfer (TR-FRET) using lanthanide chelates to measure interactions between various binding partners. The application of TR-FRET to assay kinase activity was first described by Mathis (1995). A TR-FRET assay was used to measure FGFR3 kinase inhibitory activity. The assay panel was run on a Biomek FX liquid handling workstations. To the assay plates containing […] compound or control solutions, 4.5 μL of buffer A (50 mM TRIS-HCl pH 7.4, 2 mM DTT, 0.02% Tween 20, 0.02 mM Na3VO4, H2O nanpure) including a generic concentration of ATP (2 μM f.c.) was added per well, followed by 4.5 μL of buffer B (4 uM ATP in Buffer A) including a generic concentration of polyEAY (50 nM f.c.), FGFR3 kinase, and divalent cations. Final concentration of kinase and cations were: [FGFR3 kinase]=0.20 nM, [Mg]=3 mM, [Mn]=3 mM. After 1 hour of incubation the kinase reactions were stopped by the addition of 4.5 μL of stop solution D (50 mM EDTA, 20 mM TRIS-HCl pH 7.4, 0.04% NP-40) immediately followed by 4.5 μL of buffer A (50 mM TRIS-HCl pH 7.4, 2 mM DTT, 0.02% Tween 20, 0.02 mM Na3VO4, H2O nanpure) including the Tb-labeled P-20 antibody to give a total detection volume of 18 μL. After an incubation time of 45 min in the dark, the plates were transferred into the Pherastar fluorescence reader for counting. The effect of compound on the enzymatic activity was obtained from the linear progress curves and determined from one reading (end point measurement).

PIM2 = PIM2 (Homo sapiens, UniProt Q9P1W9); test: Pim 2 AlphaScreen assay (high ATP); type: biochemical; details: read-out: Pim2 IC50
PIM2, sequence (Q9P1W9 whole entry): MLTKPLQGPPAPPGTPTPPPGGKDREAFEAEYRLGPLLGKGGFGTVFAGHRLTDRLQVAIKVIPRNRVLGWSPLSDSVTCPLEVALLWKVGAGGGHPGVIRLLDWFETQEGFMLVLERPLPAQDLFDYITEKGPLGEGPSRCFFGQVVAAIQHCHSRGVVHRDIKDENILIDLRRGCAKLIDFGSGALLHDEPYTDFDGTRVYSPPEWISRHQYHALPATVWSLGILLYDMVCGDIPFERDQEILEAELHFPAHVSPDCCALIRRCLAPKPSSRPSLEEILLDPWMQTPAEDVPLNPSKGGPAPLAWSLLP
How it was run: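 This is a bead-based AlphaScreen run at high ATP (11-125× Km) with biotin-Bad peptide (100 nM in the substrate mix), in 50 mM Hepes pH 7.5, 5 mM MgCl2, 0.05% BSA, 0.01% Tween-20, 1 mM DTT and 2.5% DMSO final. After ~2 h the reaction was stopped with EDTA. Phospho-peptide was detected overnight with anti-phospho Ser/Thr antibody on Protein A and streptavidin beads, giving IC50.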

Row | IC50 (cABLT315 kinase) [µM] | IC50 (FGFR3 kinase) [µM] | IC50 (PIM2) [µM] | IC50 (cABLT315 kinase; Caliper assay) [µM] | SMILES | IC50 (hERG; dofetilide displacement) [µM] | IC50 (hERG; hERG binding, dofetilide) [µM]
1 | 7.4 | 8 |  |  | Nc1ncc(-c2ccccc2)nc1C(=O)Nc1cnccc1[C@@H]1C[C@H](O)[C@]2(O)CCCC[C@@H]2O1 [Example 176, 3-amino-N-(4-((2S,4S,4aR,8aS)-4,4a-dihydroxyoctahydro-2H-chromen-2-yl)pyridin-3-yl)-6-phenylpyrazine-2-carboxamide] | > 30 | 
2 | > 10 | > 10 |  |  | N[C@@H]1C[C@H](c2ccncc2NC(=O)c2ccc(F)c(-c3c(F)cccc3F)n2)O[C@@H]2CCC[C@]12O [Example 210, N-(4-((2R,4R,4aS,7aR)-4-amino-4a-hydroxyoctahydrocyclopenta[b]pyran-2-yl)pyridin-3-yl)-6-(2,6-difluorophenyl)-5-fluoropicolinamide] | 10 | 
3 |  | > 10 | 0.0018 | > 10 | Nc1cc(F)c(-c2c(F)cccc2F)nc1C(=O)Nc1cnccc1[C@H]1C[C@@H](N)[C@@]2(O)CCCC[C@H]2O1 [Example 238, 3-amino-N-(4-((2R,4R,4aS,8aR)-4-amino-4a-hydroxyoctahydro-2H-chromen-2-yl)pyridin-3-yl)-6-(2,6-difluorophenyl)-5-fluoropicolinamide] |  | 4
4 | 0.09 | 0.011 |  |  | Nc1ncc(-c2ccccc2)nc1C(=O)Nc1cnccc1[C@H]1C[C@@H](O)[C@@]2(O)CCC[C@H]2O1 [Example 195, 3-amino-N-(4-((2R,4R,4aS,7aR)-4,4a-dihydroxyoctahydrocyclopenta[b]pyran-2-yl)pyridin-3-yl)-6-phenylpyrazine-2-carboxamide] | > 30 | 
5 |  | > 10 | 0.0085 | > 10 | C[C@H]1O[C@@H](c2ccncc2NC(=O)c2ccc(F)c(-c3c(F)cccc3F)n2)C[C@@H](N)[C@]1(C)O [Example 219, N-(4-((2R,4R,5S,6R)-4-amino-5-hydroxy-5,6-dimethyltetrahydro-2H-pyran-2-yl)pyridin-3-yl)-6-(2,6-difluorophenyl)-5-fluoropicolinamide] |  | 16
6 | > 10 | > 10 |  |  | Nc1cnc(-c2c(F)cccc2F)nc1C(=O)Nc1cnccc1[C@H]1C[C@@H](N)[C@@]2(O)CCC[C@H]2O1 [Example 213, 5-amino-N-(4-((2R,4R,4aS,7aR)-4-amino-4a-hydroxyoctahydrocyclopenta[b]pyran-2-yl)pyridin-3-yl)-2-(2,6-difluorophenyl)pyrimidine-4-carboxamide] | > 30 | 
7 | 9.9 | 3.7 |  |  | Nc1ncc(-c2ccccc2)nc1C(=O)Nc1cnccc1[C@@H]1C[C@H](O)[C@]2(O)CCC[C@@H]2O1 [Example 186, 3-amino-N-(4-((2S,4S,4aR,7aS)-4,4a-dihydroxyoctahydrocyclopenta[b]pyran-2-yl)pyridin-3-yl)-6-phenylpyrazine-2-carboxamide] | > 30 | 
8 |  | 1.6 | 0.514 | 0.86 | CC1(C)C[C@H](N)C[C@@H](c2ccncc2NC(=O)c2nc(-c3ccccc3)cnc2N)O1 [Example 297, 3-amino-N-(4-((2S,4R)-4-amino-6,6-dimethyltetrahydro-2H-pyran-2-yl)pyridin-3-yl)-6-phenylpyrazine-2-carboxamide] |  | 
9 |  | > 10 | 0.0099 | > 10 | COc1cc(F)c(-c2nc(C(=O)Nc3cnccc3[C@H]3C[C@@H](N)[C@](C)(O)[C@@H](C)O3)ccc2F)c(F)c1 [Example 242, N-(4-((2R,4R,5S,6R)-4-amino-5-hydroxy-5,6-dimethyltetrahydro-2H-pyran-2-yl)pyridin-3-yl)-6-(2,6-difluoro-4-methoxyphenyl)-5-fluoropicolinamide] |  | 6
10 | > 10 | > 10 |  |  | O=C1CC[C@H]2O[C@@H](c3ccncc3NC(=O)c3ccc(F)c(-c4c(F)cccc4F)n3)C[C@@H](O)[C@@H]2N1 [Example 196, 6-(2,6-difluorophenyl)-5-fluoro-N-(4-((2R,4R,4aS,8aR)-4-hydroxy-6-oxooctahydro-2H-pyrano[3,2-b]pyridin-2-yl)pyridin-3-yl)picolinamide] | > 30 | 
11 |  | > 10 |  | > 10 | N[C@@H]1C[C@H](c2ccncc2NC(=O)c2ccc(F)c(-c3c(F)cccc3F)n2)O[C@@H]2CCC[C@H]12 [Example 224, N-(4-((2R,4R,4aR,7aR)-4-aminooctahydrocyclopenta[b]pyran-2-yl)pyridin-3-yl)-6-(2,6-difluorophenyl)-5-fluoropicolinamide] |  | 2
12 | > 10 | > 10 |  |  | CC[C@]1(O)[C@H](O)C[C@H](c2ccncc2NC(=O)c2nc(-c3c(F)cccc3F)ncc2N)O[C@@H]1C [Example 143, 5-amino-2-(2,6-difluorophenyl)-N-(4-((2R,4R,5S,6R)-5-ethyl-4,5-dihydroxy-6-methyltetrahydro-2H-pyran-2-yl)pyridin-3-yl)pyrimidine-4-carboxamide] | > 30 | 
13 | > 10 | > 10 |  |  | O=C(Nc1cnccc1[C@H]1C[C@@H](O)[C@@]2(O)CCCC[C@H]2O1)c1c[nH]cc(-c2ccccc2)c1=O [Example 178, N-(4-((2R,4R,4aS,8aR)-4,4a-dihydroxyoctahydro-2H-chromen-2-yl)pyridin-3-yl)-4-oxo-5-phenyl-1,4-dihydropyridine-3-carboxamide] | > 30 | 
14 |  | > 10 |  | > 10 | CC[C@]1(O)[C@H](N)C[C@H](c2ccncc2NC(=O)c2ccc(F)c(-c3c(F)cccc3F)n2)O[C@@H]1C [Example 232, N-(4-((2R,4R,5S,6R)-4-amino-5-ethyl-5-hydroxy-6-methyltetrahydro-2H-pyran-2-yl)pyridin-3-yl)-6-(2,6-difluorophenyl)-5-fluoropicolinamide] |  | 5
15 |  | 0.2 | 0.283 | 0.11 | CC1(C)C[C@@H](N)C[C@H](c2ccncc2NC(=O)c2nc(-c3ccccc3)cnc2N)O1 [Example 296, 3-amino-N-(4-((2R,4S)-4-amino-6,6-dimethyltetrahydro-2H-pyran-2-yl)pyridin-3-yl)-6-phenylpyrazine-2-carboxamide] |  | 
16 |  | > 10 |  | > 10 | N[C@H]1C[C@@H](c2ccncc2NC(=O)c2csc(-c3c(F)cccc3F)n2)O[C@H]2CCC[C@H]21 [Example 230, N-(4-((2S,4S,4aS,7aS)-4-aminooctahydrocyclopenta[b]pyran-2-yl)pyridin-3-yl)-2-(2,6-difluorophenyl)thiazole-4-carboxamide] |  | 4
17 | 0.07 | 0.045 |  |  | Nc1ncc(-c2ccccc2)nc1C(=O)Nc1cnccc1[C@H]1C[C@@H](O)[C@@]2(O)CCCC[C@H]2O1 [Example 173, 3-amino-N-(4-((2R,4R,4aS,8aR)-4,4a-dihydroxyoctahydro-2H-chromen-2-yl)pyridin-3-yl)-6-phenylpyrazine-2-carboxamide] | > 30 | 
